Where two headings read alike, the source gives them in different places.
How the values were obtained:
[1] = target: T1, human recombinant 5-HT2C receptor (Homo sapiens, UniProt P28335); experiment: Test Example 2-2: 5-HT2C receptor binding inhibition test ([3H]-Mesulergine; non-specific ligand Ketanserin); settings: non-specific binding with 500 µmol/L Ketanserin, 37°C, 2 hours
T1 construct: expressed in transfected cells; host or cells: Jump-In HEK cells (membrane preparation)
T1 sequence (P28335 33-458): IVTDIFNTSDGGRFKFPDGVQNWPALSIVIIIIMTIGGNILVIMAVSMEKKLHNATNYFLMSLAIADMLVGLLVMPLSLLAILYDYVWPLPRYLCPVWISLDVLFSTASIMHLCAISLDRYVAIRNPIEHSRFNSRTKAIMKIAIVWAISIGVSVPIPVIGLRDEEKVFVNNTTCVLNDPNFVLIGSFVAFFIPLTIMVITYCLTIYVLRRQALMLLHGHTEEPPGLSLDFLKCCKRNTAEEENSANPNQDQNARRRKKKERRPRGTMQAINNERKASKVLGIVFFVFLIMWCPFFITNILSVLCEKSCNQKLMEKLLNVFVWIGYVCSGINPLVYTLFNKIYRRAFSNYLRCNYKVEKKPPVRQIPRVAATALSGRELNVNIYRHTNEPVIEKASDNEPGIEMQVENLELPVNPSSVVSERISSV
Method: The Kd value is calculated when the lot of the cell membrane is changed. 1 mmol/L non-specific binding calculating compound dissolved in DMSO or DMSO is previously dispensed to the microplate by 0.5 µL, and the cell membrane is diluted with an Assay buffer. The radioactive ligand solution is diluted step by step, and counts are checked with a liquid scintillator. The Assay buffer containing diluted cell membranes is dispensed by 50 µL/well into the microplate. The radioactive ligand solution is then dispensed by 50 µL/well into the microplate and the plate is sealed. The microplate is allowed to stand at 37°C for 2 hours. During this time, 50 mmol/L Tris-HCl (pH 7.4) is dispensed by 50 µL/well into the UniFilter plate and allowed to stand at 4°C for 1 hour or longer. Thereafter, filtration is performed with a Cell Harvester (PerkinElmer). The radioactive ligand solution is dispensed by 10 µL/well into empty wells of the UniFilter plate. After drying the UniFilter plate at room temperature, MicroScinti20 is dispensed by 50 µL/well into the UniFilter plate, and the plate is sealed. UniFilter plate is allowed to stand at room temperature overnight. The radioactivity of [^3H]-Mesulergine bound to the 5-HT2C receptor is measured using Microbeta2 (PerkinElmer) at a measurement time of 1 min/well. The Saturation curve is drawn from the measured value, and the Kd value is calculated from the slope of the Scatchard Plot.
A compound solution dissolved in DMSO is dispensed to a microplate by 0.5 µL, and a cell membrane and a hot ligand are each diluted with an Assay buffer. The Assay buffer containing diluted cell membrane is then dispensed by 50 µL/well into the microplate. The radioactive ligand solution is then dispensed by 50 µL/well into the microplate and the plate is sealed. The microplate is then allowed to stand at 37°C for 2 hours. During this time, 50 mmol/L Tris-HCl (pH 7.4) is dispensed by 50 µL/well into the UniFilter plate and allowed to stand at 4°C for 1 hour or longer. Thereafter, filtration is performed with a Cell Harvester (PerkinElmer). After drying the UniFilter plate at room temperature, MicroScinti20 is dispensed by 50 µL/well into the UniFilter plate, and the plate is sealed. UniFilter plate is allowed to stand at room temperature overnight. The radioactivity of [^3H]-Mesulergine bound to the 5-HT2C receptor is measured using Microbeta2 (PerkinElmer) at a measurement time of 1 min/well. Non-specific binding is calculated from the radioactivity of [^3H]-Mesulergine in the presence of 500 µmol/L Ketanserin of unlabeled ligand, and total binding is calculated from the radioactivity of [^3H]-Mesulergine in the absence of the compound of the present invention (Vehicle). Finally, the Ki value is calculated from the dose-response curve.
(The binding activity of the compound according to the present invention is calculated from the following binding inhibition rate (%).) Inhibition rate (%) = [1−(c−a)/(b−a)] × 100 [formula] • a; average cpm of non-specific binding • b; average cpm of total binding • c; cpm in the presence of the test compound
The compounds of the present invention were tested essentially as described above.

[2] = target: T2, human recombinant 5-HT2A receptor (Homo sapiens, UniProt P28223); experiment: Test Example 1-2: 5-HT2A receptor binding inhibition test ([3H]-Ketanserin; non-specific ligand Ketanserin)
T2 construct: expressed in transfected cells; host or cells: Jump-In HEK cells (membrane preparation)
T2 sequence (P28223 whole entry): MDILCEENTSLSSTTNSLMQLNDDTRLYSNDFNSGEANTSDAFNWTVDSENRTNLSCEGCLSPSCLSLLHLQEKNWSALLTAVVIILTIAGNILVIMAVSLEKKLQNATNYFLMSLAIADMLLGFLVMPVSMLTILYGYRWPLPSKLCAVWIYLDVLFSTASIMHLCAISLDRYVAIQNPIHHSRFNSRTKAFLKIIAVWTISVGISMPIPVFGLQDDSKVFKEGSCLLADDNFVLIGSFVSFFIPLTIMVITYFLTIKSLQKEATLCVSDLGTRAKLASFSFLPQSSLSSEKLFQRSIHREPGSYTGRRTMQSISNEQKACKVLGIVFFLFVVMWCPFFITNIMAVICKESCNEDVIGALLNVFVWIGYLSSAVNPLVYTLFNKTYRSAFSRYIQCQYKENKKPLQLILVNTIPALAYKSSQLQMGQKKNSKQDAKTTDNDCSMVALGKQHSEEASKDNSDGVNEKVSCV
In short: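 Membranes expressing the receptor were incubated with [3H]-ketanserin and compound for 1.5 h at 25 °C, then filtered onto plates presoaked in 50 mmol/L Tris-HCl pH 7.4 and scintillation-counted. Non-specific binding was defined with 500 µmol/L unlabeled ketanserin. Ki was taken from dose-response curves, with Kd set for each membrane lot by Scatchard analysis.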

[3] = target: T1, human recombinant 5-HT2C receptor; experiment: Test Example 2: 5-HT2C receptor binding inhibition test ([3H]-Mesulergine; non-specific ligand Serotonin HCl); settings: human serotonin 5-HT2C receptor binding activity
In short: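 Filtration binding to membranes bearing human 5-HT2C with [3H]-mesulergine, 2 h at 37°C; non-specific binding defined with 500 µmol/L serotonin HCl, total binding with vehicle. Inhibition rate computed from cpm; Ki derived from dose-response curve, with ligand Kd from Scatchard analysis of saturation binding.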

[4] = [3H]-Ketanserin, non-specific binding with 500 µmol/L Ketanserin, room temperature (25°C), 1.5 hours, read-out: h 5-HT2A Ki

Structure (SMILES): Cn1ncc(Br)c1-c1cc(Nc2ncc(Cl)s2)ccc1OCCO [Compound I-040]
- Ki [1]: 1.16 nM
- Ki [2, 4]: 0.175 nM

Structure (SMILES): C=C(C)c1cnn(C)c1-c1cc(Nc2ncc(C(F)(F)F)cc2F)ccc1OCCO [I-054]
- Ki [1]: 1.03 nM
- Ki [2]: 0.632 nM

Structure (SMILES): Cc1cnn(C)c1-c1cc(Nc2ccc(C(F)(F)F)cn2)c(F)cc1OCCO [Compound I-157]
- Ki [1]: 2.33 nM
- Ki [2, 4]: 0.238 nM

Structure (SMILES): Cc1cnc(Nc2ccc(OCCO)c(-c3c(Br)cnn3C)c2)s1 [Compound I-028]
- Ki [1]: 4.96 nM
- Ki [2, 4]: 0.209 nM

Structure (SMILES): Cn1ncc(Br)c1-c1cc(Nc2ncc(Cl)cc2F)cnc1OCCO [Compound I-117]
- Ki [1]: 0.305 nM
- Ki [2, 4]: 0.241 nM

Structure (SMILES): Cn1ncc(Br)c1-c1cc(Nc2nc3ccccc3s2)ccc1OCCO [Compound I-029]
- Ki [1]: 0.636 nM
- Ki [2, 4]: 0.286 nM

Structure (SMILES): Cn1ncc(Br)c1-c1cc(Nc2ncc(C3CC3)s2)cnc1OCCO [Compound I-129]
- Ki [1]: 0.959 nM
- Ki [2, 4]: 0.237 nM

Structure (SMILES): Cn1ncc(C#N)c1-c1cc(Nc2ccc(C(F)(F)F)cn2)c(F)cc1OCCO [Compound I-125]
- Ki [1]: 6.04 nM
- Ki [2, 4]: 0.36 nM

Structure (SMILES): Cc1cnccc1-c1cc(Nc2ncc(C(F)(F)F)cc2F)ccc1OCCO [Compound I-012]
- Ki [1]: 6.43 nM
- Ki [2, 4]: 0.272 nM

Structure (SMILES): Cn1ncc(Br)c1-c1cc(Nc2nccc3cccnc23)ccc1OCCO [Compound I-111]
- Ki [1]: 24.2 nM
- Ki [2, 4]: 2.98 nM

Structure (SMILES): CNC(=O)c1cnc(C)c(-c2cc(Nc3ncc(C(F)(F)F)cc3F)ncc2OCCO)c1 [Compound I-371]
- Ki [2, 4]: 2.37 nM
- Ki [3]: 61.5 nM

Structure (SMILES): Cc1nc(COC2CC2)nc(C)c1-c1cc(Nc2ncc(C(F)(F)F)cc2Cl)ncc1OCCO [Compound I-374]
- Ki [2, 4]: 0.955 nM
- Ki [3]: 1.8 nM

Structure (SMILES): Cn1ncc(Br)c1-c1nc(Nc2ccc(OC(F)F)cn2)c(F)cc1OCCO [Compound I-294]
- Ki [2, 4]: 0.395 nM
- Ki [3]: 2.37 nM

Structure (SMILES): Cc1cnn(C)c1-c1nc(Nc2ccc(OC(F)(F)F)cc2)ncc1OCCO [Compound I-356]
- Ki [2, 4]: 0.163 nM
- Ki [3]: 7.79 nM

Structure (SMILES): COCc1nc(C)c(-c2cc(Nc3ncc(OCC(F)(F)F)cc3Cl)ncc2OCCO)c(C)n1 [Compound I-232]
- Ki [2, 4]: 8.27 nM
- Ki [3]: 6.06 nM

Structure (SMILES): Cn1ncc(Br)c1-c1cc(Nc2ccc(C(F)(F)F)nn2)c(F)cc1OCCO [Compound I-402]
- Ki [2, 4]: 0.533 nM
- Ki [3]: 11 nM

Structure (SMILES): Cc1nc(N2CCCC2)nc(C)c1-c1cc(Nc2ncc(C(F)(F)F)cc2Cl)ncc1OCCO [Compound I-209]
- Ki [2, 4]: 1.71 nM
- Ki [3]: 5.63 nM

Structure (SMILES): Cn1ncc(Br)c1-c1nc(Nc2ccc(Cl)c(C(F)(F)F)c2)ncc1OCCO [Compound I-350]
- Ki [2, 4]: 0.204 nM
- Ki [3]: 6.51 nM

Structure (SMILES): COCc1nc(C)c(-c2cc(Nc3ncc(-c4ncc(C)s4)cc3Cl)ncc2OCCO)c(C)n1 [Compound I-335]
- Ki [2, 4]: 1.18 nM
- Ki [3]: 1.87 nM

Structure (SMILES): COCc1nc(C)c(-c2cc(Nc3ncc(-c4cnc(C(F)(F)F)nc4)cc3Cl)ncc2OCCO)c(C)n1 [Compound I-245]
- Ki [2, 4]: 5.85 nM
- Ki [3]: 1.41 nM

Structure (SMILES): COCc1nc(C)c(-c2cc(Nc3ncc(-c4ccc(C#N)c(F)c4)cc3Cl)ncc2OCCO)c(C)n1 [Compound I-265]
- Ki [2, 4]: 0.972 nM
- Ki [3]: 0.47 nM

Structure (SMILES): Cn1ncc(Br)c1-c1cc(Nc2ncc(OC(F)(F)F)cc2F)ncc1OCCO [Compound I-287]
- Ki [2, 4]: 0.28 nM
- Ki [3]: 0.266 nM

Source: patent EP4631938A1, “NITROGEN-CONTAINING HETEROCYCLE WITH SEROTONIN RECEPTOR-BINDING ACTIVITY AND CARBOCYCLIC DERIVATIVE” (Shionogi & Co., Ltd, priority 2022, dated 2024)
